Literature values as cited in patent publication US5849746A, “Substituted 1,4-piperazine-heteroaryl derivatives as 5-HT1D receptor agonists” (Merck Sharp & Dohme Ltd., priority 1995, dated 1998).

Tests used:
[1] = humans, therapeutic doses
[2] = system: human 5-HT1Dα and 5-HT1Dβ receptor subtypes; conditions: cf. WO-A-91/17174, Table 1

**Q.** For `CNS(=O)(=O)Cc1ccc2[nH]cc(CCN(C)C)c2c1` [sumatriptan], which adverse cardiovascular events [1] is on record?
**A.** Its adverse cardiovascular events is “certain adverse cardiovascular events”.

**Q.** And the “discrimination between human 5-HT1Dα and 5-HT1Dβ receptor subtypes (in words)” value [2]?
**A.** The value was “barely discriminates between the human 5-HT1Dα and 5-HT1Dβ receptor subtypes”.
